Test results as given in PMC12649549, “Sequence Permutation Generated Lysine and Tryptophan-Rich Antimicrobial Peptides with Enhanced Therapeutic Index” (Antibiotics, 2025).
Like-named read-outs stand apart in the source and are kept apart here.

Experiments:
[1] = tested on: S. aureus ATCC 33593
Outline: (§1)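 Broth microdilution per CLSI in Müller-Hinton broth and modified LYM broth (pH 7.4; variants with 50–300 mM NaCl, 0.5–2.5 mM MgCl2, or pH 6.5–4.5). Inoculum 5 × 10^5 CFU/mL; peptides tested at 0.78–50 µg/mL final. MIC read; three independent repeats.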

[2] = tested on: A. baumannii 14B00100 (Acinetobacter sp., BCRC number 14B0100)
Outline: as §1

[3] = tested on: A. baumannii 14B0091 (Acinetobacter sp., BCRC number 14B0091)
Outline: as §1

[4] = tested on: S. aureus ATCC 33591
Outline: as §1

[5] = tested on: S. aureus ATCC 25923
Outline: as §1

[6] = tested on: Pseudomonas aeruginosa Migula (ATCC 27853)
Outline: as §1

[7] = tested on: Escherichia coli (ATCC 25922)
Outline: as §1

[8] = LYM broth, 0 mM NaCl, 16 h, 37 °C
[9] = LYM broth, 50 mM NaCl, 16 h, 37 °C
[10] = LYM broth, 100 mM NaCl, 16 h, 37 °C
[11] = LYM broth, 200 mM (NaCl), 16 h, 37 °C
[12] = LYM broth, 300 mM (NaCl), 16 h, 37 °C
[13] = MH broth, 5 × 10^5 CFU/mL, 16 h, 37 °C, repeated three times

Ac-WLKWLAKKKKWRK-NH2 [Peptide W5K05] gave an MIC [1, 8] of 6.25 µg/mL, an MIC ([1]; LYM broth, 0.5 mM MgCl2) of 12.5 µg/mL and an MIC ([1]; LYM broth, 1.5 mM MgCl2) of 12.5 µg/mL. It also gave an MIC ([1]; LYM broth, 2.5 mM MgCl2) of 12.5 µg/mL, an MIC [1, 9] of 6.25 µg/mL and an MIC [1, 10] of 12.5 µg/mL. It also gave an MIC [1, 11] of 25 µg/mL, an MIC [1, 12] of 50 µg/mL and an MIC ([1]; LYM broth, pH 4.5) of 3.13 µg/mL. The MIC ([1]; LYM broth, pH 5.5) was 3.13 µg/mL, the MIC ([1]; LYM broth, pH 6.5) was 3.13 µg/mL and the MIC [1, 13] was 50 µg/mL. The MIC [2, 8] was 0.78 µg/mL, the MIC ([2]; LYM broth, 0.5 mM MgCl2) was 1.56 µg/mL and the MIC ([2]; LYM broth, 1.5 mM MgCl2) was 1.56 µg/mL. It also gave an MIC ([2]; LYM broth, 2.5 mM MgCl2) of 1.56 µg/mL, an MIC [2, 9] of 1.56 µg/mL and an MIC [2, 10] of 3.13 µg/mL. It also gave an MIC [2, 11] of 6.25 µg/mL, an MIC [2, 12] of 12.5 µg/mL and an MIC ([2]; LYM broth, pH 4.5) of 1.56 µg/mL. The MIC ([2]; LYM broth, pH 5.5) was 1.56 µg/mL, the MIC ([2]; LYM broth, pH 6.5) was 1.56 µg/mL and the MIC [2, 13] was 12.5 µg/mL. The MIC [3, 8] was 1.56 µg/mL, the MIC ([3]; LYM broth, 0.5 mM MgCl2) was 1.56 µg/mL and the MIC ([3]; LYM broth, 1.5 mM MgCl2) was 1.56 µg/mL. The MIC ([3]; LYM broth, 2.5 mM MgCl2) was 1.56 µg/mL, the MIC [3, 9] was 1.56 µg/mL and the MIC [3, 10] was 3.13 µg/mL. The MIC [3, 11] was 6.25 µg/mL, the MIC [3, 12] was 25 µg/mL and the MIC ([3]; LYM broth, pH 4.5) was 3.13 µg/mL. It also gave an MIC ([3]; LYM broth, pH 5.5) of 1.56 µg/mL, an MIC ([3]; LYM broth, pH 6.5) of 1.56 µg/mL and an MIC [3, 13] of 12.5 µg/mL. It also gave an MIC [4, 8] of 6.25 µg/mL, an MIC ([4]; LYM broth, 0.5 mM MgCl2) of 6.25 µg/mL and an MIC ([4]; LYM broth, 1.5 mM MgCl2) of 12.5 µg/mL. The MIC ([4]; LYM broth, 2.5 mM MgCl2) was 12.5 µg/mL, the MIC [4, 9] was 6.25 µg/mL and the MIC [4, 10] was 12.5 µg/mL. For the same substance, the MIC [4, 11] was 25 µg/mL, the MIC [4, 12] was 50 µg/mL and the MIC ([4]; LYM broth, pH 4.5) was 6.25 µg/mL. The MIC ([4]; LYM broth, pH 5.5) was 3.13 µg/mL, the MIC ([4]; LYM broth, pH 6.5) was 3.13 µg/mL and the MIC [4, 13] was 50 µg/mL. It also gave an MIC [5, 8] of 1.56 µg/mL, an MIC ([5]; LYM broth, 0.5 mM MgCl2) of 1.56 µg/mL and an MIC ([5]; LYM broth, 1.5 mM MgCl2) of 3.13 µg/mL. The MIC ([5]; LYM broth, 2.5 mM MgCl2) was 3.13 µg/mL, the MIC [5, 9] was 3.13 µg/mL and the MIC [5, 10] was 6.25 µg/mL. For the same substance, the MIC [5, 11] was 50 µg/mL, the MIC [5, 12] was 50 µg/mL and the MIC ([5]; LYM broth, pH 4.5) was 1.56 µg/mL. The MIC ([5]; LYM broth, pH 5.5) was 1.56 µg/mL, the MIC ([5]; LYM broth, pH 6.5) was 1.56 µg/mL and the MIC [5, 13] was 25 µg/mL. The MIC [6, 8] was 3.13 µg/mL, the MIC ([6]; LYM broth, 0.5 mM MgCl2) was 3.13 µg/mL and the MIC ([6]; LYM broth, 1.5 mM MgCl2) was 3.13 µg/mL. It also gave an MIC ([6]; LYM broth, 2.5 mM MgCl2) of 6.25 µg/mL, an MIC [6, 9] of 6.25 µg/mL and an MIC [6, 10] of 12.5 µg/mL. The MIC [6, 11] was >50 µg/mL, the MIC [6, 12] was >50 µg/mL and the MIC ([6]; LYM broth, pH 4.5) was 1.56 µg/mL. It also gave an MIC ([6]; LYM broth, pH 5.5) of 1.56 µg/mL, an MIC ([6]; LYM broth, pH 6.5) of 1.56 µg/mL and an MIC [6, 13] of 25 µg/mL. The MIC [7, 8] was 1.56 µg/mL, the MIC ([7]; LYM broth, 0.5 mM MgCl2) was 3.13 µg/mL and the MIC ([7]; LYM broth, 1.5 mM MgCl2) was 6.25 µg/mL. It also gave an MIC ([7]; LYM broth, 2.5 mM MgCl2) of 6.25 µg/mL, an MIC [7, 9] of 3.13 µg/mL and an MIC [7, 10] of 12.5 µg/mL. The MIC [7, 11] was 50 µg/mL, the MIC [7, 12] was >50 µg/mL and the MIC ([7]; LYM broth, pH 4.5) was 1.56 µg/mL. The MIC ([7]; LYM broth, pH 5.5) was 1.56 µg/mL, the MIC ([7]; LYM broth, pH 6.5) was 1.56 µg/mL and the MIC [7, 13] was 12.5 µg/mL.
